Among the data in ChEMBL document CHEMBL3507680, “University of Dundee, Gates Library screen for HepG2 cell viability” are cytotoxicity values, retold here.

The data set in a line: Human HepG2 cell viability assay in 384 well format. The data set is classed as toxicity, cell-based. On the set-up: dose 125 nL, time 70.5 hour; concentration not given beside the values. The settings on record: HepG2 cells, read-out: Inhibition.

In the case of `CNC(=O)C(C)(C)N1CCC[C@H]1C(=O)NC1CCCC1`, the cytotoxicity at 70.5 h is -0.301%.
Regarding `COCCN1C[C@H]2CN(C(=O)NCc3ccccc3)CCN2C1=O`, the cytotoxicity at 70.5 h is -8.58%.
With `O=C(NC[C@H]1OC[C@@H](NC2COC2)[C@@H]1O)C1CCCC1`, the cytotoxicity at 70.5 h was -8.61%.
On to `Cc1ccc(CNC2(Cc3cc(-c4cccc(O)c4)on3)COC2)o1`, for which the cytotoxicity at 70.5 h is -8.24%.
For the compound `CC(C)(O)c1cc(CC2(NCc3ccccc3Cl)COC2)no1`, the cytotoxicity at 70.5 h was -0.604%.
With `CC(C)(C)CN[C@@H]1CO[C@H](CNC(=O)c2ccncc2)[C@H]1O`, the cytotoxicity at 70.5 h came out at 0.614%.
For `F[C@@H]1CN(CC2CC2)C[C@@H]1OCc1nc2ccccc2o1`, the cytotoxicity at 70.5 h was -1.13%.
Consider `Cc1ccc2nc3n(c2c1)[C@@H](CNC(=O)c1ccncc1)COC3`, for which the cytotoxicity at 70.5 h amounted to 4.47%.
Consider `COc1cccc(CNC[C@H]2COCc3nc4cccnc4n32)n1`, for which the cytotoxicity at 70.5 h is -8.19%.
Take `COc1ccc(C(=O)NC[C@H]2COCc3nc4cc(C)ccc4n32)cc1`: the cytotoxicity at 70.5 h is -4.37%.
With `Cc1cccc2c1nc1n2[C@@H](CNC(=O)C2CCOCC2)COC1`, the cytotoxicity at 70.5 h is -4.19%.
For the compound `COCC(=O)N[C@H](C)c1c(-c2ccc(Cl)cc2)noc1C(=O)O`, the cytotoxicity at 70.5 h was -2.23%.
As for `Cc1cccc2c1nc1n2[C@@H](CNC(=O)Cc2ccccc2)COC1`, the figure is -1.08%.
Turning to `C[C@@H](NCc1cccc(Cl)c1)c1onc(-c2ccccc2)c1C(=O)O`, the cytotoxicity at 70.5 h is -3.56%.
The same measure for `Cc1cccc(CNC[C@H]2Cn3ccnc3CO2)n1`: -1.57%; for `CCN(CC)[C@H]1C[C@@H](Cc2cc(CO)on2)C1(C)C`: -7.1%.
For the compound `CN1C(=O)CO[C@H](c2ccc(NC(=O)Cc3cccs3)cc2)[C@H]1CO`, the cytotoxicity at 70.5 h was -6.23%.
The same measure for `O=C(c1ccc2c(c1)OCO2)N1CCN2C(=O)NC[C@H]2C1`: -7.42%.
As for `CC(C)(C)C(=O)NC[C@H]1Cn2c(-c3ccccc3)cnc2CO1`, the figure is -9.72%.
In the case of `O=C(NC[C@H]1Cn2c(-c3ccccc3)cnc2CO1)C1CCOCC1`, the cytotoxicity at 70.5 h was -9.93%.
Take `COCCO[C@H]1COCCN(Cc2ccc(OC)cc2)C1`: the cytotoxicity at 70.5 h worked out at 8.32%.
The same measure for `CC(C)(C)c1coc([C@@H]2COCCN2Cc2c[nH]c3ccccc23)n1`: 1.59%; for `CC(C)(C)C(=O)N1C[C@@H](F)[C@@H](OCc2nc3ccccc3o2)C1`: -3.29%.
Turning to `Cn1c(CN2CCOC[C@H]2c2nc(C(C)(C)C)co2)nc2ccccc21`, the cytotoxicity at 70.5 h is -0.449%.
`COc1ccc2c(c1)nc1n2[C@@H](CNCc2nccs2)COC1`: the cytotoxicity at 70.5 h is -13.7%.
As for `COc1ccc2c(c1)nc1n2[C@@H](CNCc2ccccc2)COC1`, the cytotoxicity at 70.5 h is 10.1%.
On to `F[C@@H]1CN(C2CCC2)C[C@@H]1OCc1nc2ncccc2[nH]1`, for which the cytotoxicity at 70.5 h was determined as 15.4%.
Regarding `CCN(CC)CC[C@H]1CN(C(=O)NC2CCCCC2)CC[C@H]1CC(=O)O`, the cytotoxicity at 70.5 h was -1.74%.
Consider `CCN1C(=O)COC[C@@H]1[C@H](O)c1ccc(NC(=O)COC)cc1`, for which the cytotoxicity at 70.5 h is 11%.
As for `FC(F)(F)Oc1ccc(-c2c[nH]c([C@@H]3COCCN3)n2)cc1`, the figure is -3.01%.
For the compound `CC(=O)N1C[C@@H](F)[C@@H](OCc2nc3ccc(C#N)cc3[nH]2)C1`, the cytotoxicity at 70.5 h was -1.65%.
`COc1ccc(CNC[C@H]2COCc3nc4cccnc4n32)cn1`: the cytotoxicity at 70.5 h was -6.49%.
As to `COc1cccc(OCC2CCCN(C(=O)c3ncc(F)cc3F)C2)c1` (centres undefined), the cytotoxicity at 70.5 h stood at 1.3%.
As for `COc1ccc(CCN2C(=O)O[C@@H]3CN(C4CCSCC4)C[C@@H]32)cc1`, the cytotoxicity at 70.5 h was -6.37%.
For `Cc1cnc(C)c(N2CCCC(CO)(Cc3ccccc3C)C2)n1` (centres undefined), the cytotoxicity at 70.5 h stood at 11.4%.
With `O=C(N[C@@H]1CCN(c2ncc(Cl)cc2Cl)C[C@H]1O)c1cnccn1`, the cytotoxicity at 70.5 h is -2.1%.
As to `CCCc1ccc(CN2CCC3(CCC(=O)N(C(C)C(=O)O)C3)CC2)o1` (centres undefined), the cytotoxicity at 70.5 h is -4.9%.
As to `CN(C)CC(C)(C)Cn1cnc(-c2ccccc2)c1-c1ncc[nH]1`, the cytotoxicity at 70.5 h was 11.7%.
As for `Cc1ccc(C(=O)O)c(N2Cc3cnc(C(C)(C)C)nc3C2)n1`, the cytotoxicity at 70.5 h was -14.8%.
For the compound `Cc1ccc(C2CC(=O)NCc3nc(N)sc32)cc1C` (centres undefined), the cytotoxicity at 70.5 h is -5.03%.
As for `COc1ccc2c(c1)OCC(CNC(=O)c1ccncc1)C2` (centres undefined), the figure is 13.9%.
The same measure for `CCCc1nc(C)cc(N2CCC3(CCC(=O)N(CCOC)C3)CC2)n1`: -9.62%; for `Cn1nccc1C(=O)N1CCOC(Cc2cccc(C(F)(F)F)c2)C1` (centres undefined): 4.43%.
Turning to `CCCn1nc(C2CCNCC2)n(Cc2ccccc2)c1=O`, the cytotoxicity at 70.5 h was -7.28%.
`O=C(CCn1cnnc1)N1CCCC(c2ncc[nH]2)C1` (centres undefined): the cytotoxicity at 70.5 h is -2.12%.
In the case of `CN(Cc1ccccc1)C1(C(=O)O)Cc2ccccc2C1`, the cytotoxicity at 70.5 h is -1.88%.
In the case of `CC(C)C(=O)N1CCN(C(=O)c2cc(C(C)C)on2)[C@H]2CS(=O)(=O)C[C@H]21`, the cytotoxicity at 70.5 h amounted to 14.2%.
As for `O=C1OC2(CCN(C3CCCOC3)CC2)CN1CCc1ccccc1` (centres undefined), the figure is 5.31%; as for `CN(C)c1nc2c(c(=O)[nH]1)CCN(C(=O)c1cccc3nccnc13)C2`, 2.31%; as for `CCn1nc(C)c(CCn2ccnc2-c2cc3n(n2)CCCNC3)c1C`, -3.85%.
As for `CC(Cn1cncn1)NCc1nncn1C1CCCCC1` (centres undefined), the figure is -1.66%; as for `COc1ccc(Cl)cc1C(=O)N1CCOC2(CNCCOC2)C1` (centres undefined), -0.31%; as for `CC(C)=CCN1C[C@H]2CC[C@@H]1CN(C(=O)c1c[nH]c(=O)c(Cl)c1)C2`, -1.3%.
For `O=C(C1CCC1)N1CCN(Cc2ccsc2)[C@H]2CS(=O)(=O)C[C@H]21`, the cytotoxicity at 70.5 h is -0.678%.
As for `Cc1ccc(C#N)c(N2CCC(c3nccn3CCN(C)C)CC2)n1`, the cytotoxicity at 70.5 h was -7.04%.
As for `Cc1nc(CCN(C)C(=O)C2COc3ccccc3C2)no1` (centres undefined), the cytotoxicity at 70.5 h was determined as 17.3%.
`Cc1nccn1Cc1nnc(C2CCCN(Cc3cccnc3)C2)n1C` (centres undefined): the cytotoxicity at 70.5 h is 5.17%.
As for `Cc1nc(N)sc1C(=O)N1CCCC(c2nccn2CCCN(C)C)C1` (centres undefined), the figure is -5.45%; as for `CCNC(=O)[C@@H]1C[C@@H](NC(=O)Cc2ccccn2)CN1CCCSC`, 14.8%.
For `CCC1CN(C(=O)c2ccc(Cl)cc2O)CCN1C(C)C` (centres undefined), the cytotoxicity at 70.5 h was -6.93%.
As for `O=C(CCCc1cn[nH]c1)N1CCOCC(O)C1` (centres undefined), the cytotoxicity at 70.5 h was determined as 0.158%.
Regarding `CCc1c(C)nn(CCNC(=O)C2CCCN(C(=O)N(C)C)C2)c1C` (centres undefined), the cytotoxicity at 70.5 h is -10.4%.
The same measure for `c1cn(Cc2nnc(C3CCN(C4CCOCC4)CC3)n2C2CC2)cn1`: -4.93%; for `CCN1CCn2nc(CCC(=O)N3CCCC3)cc2C1`: -4.63%.
Consider `CN1CCC(c2nnc(CN3CCC(O)CC3)n2C)CC1`, for which the cytotoxicity at 70.5 h was -5.78%.
As for `Cc1scc(C(=O)N2CCC3(CCCN(C)C3=O)C2)c1-c1ccccc1` (centres undefined), the figure is -11.2%; as for `Cc1cc(C)nc(CCNC(=O)[C@H]2CNC[C@@H](C(=O)N3CCCC3)C2)n1`, 9.67%; as for `CC(C)(C)c1ccn(C2(C(=O)O)CCN(c3nccc(N)n3)CC2)n1`, -3.64%.
For `Cc1nccn1CCC1CCCCN1Cc1ccc(N(C)C)nc1` (centres undefined), the cytotoxicity at 70.5 h is -10.4%.
For `Cc1nc[nH]c1CN1CCN(C(=O)CCC(F)(F)F)[C@H]2CS(=O)(=O)C[C@H]21`, the cytotoxicity at 70.5 h is -9.24%.
Take `O=C1N(Cc2cccc(F)c2F)CCCC1(O)CN1CCCOCC1` (centres undefined): the cytotoxicity at 70.5 h was -1.1%.
As for `COc1ccc(NC(=O)CCC2CCCN(Cc3ncon3)C2)cc1Cl` (centres undefined), the cytotoxicity at 70.5 h is -7.33%.
The same measure for `Cn1cc(CN2CC[C@@H]3[C@@H](CCC(=O)N3CCc3c[nH]cn3)C2)cn1`: -6.69%.
As to `CN(C)[C@H]1CCCCN(C(=O)CCc2csc(N)n2)C1`, the cytotoxicity at 70.5 h is -6.16%.
For the compound `CC(C)(C)n1cc(C2=CCN(CCc3ccccc3)CC2)cn1`, the cytotoxicity at 70.5 h is -3.25%.
As for `CCc1c(C)sc(NC(=O)CN2CCN(CC)CC2)c1C(=O)OC`, the cytotoxicity at 70.5 h was -2.99%.
Regarding `O=S(=O)(Cc1ccccc1F)NCCN1CCOCC1`, the cytotoxicity at 70.5 h was -2.45%.
As for `COc1cccc(CN2CCC(c3nccn3C(C)C)CC2)c1`, the figure is -13.1%.
`Cc1cc(F)ccc1OC1(C(=O)O)CCN(Cc2ccncc2)CC1`: the cytotoxicity at 70.5 h is -8.64%.
As for `COCCN(C)CC(=O)N1C[C@H]2CC[C@@H]1CN(C(=O)c1ccncc1)C2`, the figure is -10.1%; as for `Nc1nc(CCC(=O)N2CCOC(CC3CCCCC3)C2)cs1` (centres undefined), -2.5%; as for `COc1ccc(-n2nnc(C(=O)NC(C)C)c2C2CC2)cc1`, -6.86%.
As to `COC(=O)C1CCN(C(=O)c2ccc(C)c(NS(C)(=O)=O)c2)CC1`, the cytotoxicity at 70.5 h was -8.87%.
Turning to `CCCNC(=O)c1ccc(NC(=O)c2cccc(OCC)c2)cc1`, the cytotoxicity at 70.5 h is -7.63%.
Turning to `O=S(=O)(Cc1ccccc1F)NCCCN1CCCCC1`, the cytotoxicity at 70.5 h is -1.2%.
As for `CCC(NC(=O)C1CCN(S(C)(=O)=O)CC1)c1ccc(OC)c(OC)c1` (centres undefined), the figure is -7.44%; as for `O=C1CC(c2cccs2)c2snc(C(=O)O)c2N1` (centres undefined), -9.35%; as for `CCCS(=O)(=O)N1CCN(c2cc(-n3nc(C)cc3C)nc(C)n2)CC1`, -10.3%.
As for `COc1ccc(C2CC(=O)Nc3c2cnn3C2CCCC2)cc1` (centres undefined), the cytotoxicity at 70.5 h is -11.1%.
The same measure for `CC(=O)c1cn(CC(=O)NC(C(=O)O)C(C)C)c2ccccc12` (centres undefined): 0.278%.
`CC(COc1ccccc1)NCc1nc(-c2cccnc2)no1` (centres undefined): the cytotoxicity at 70.5 h was -1.13%.
In the case of `CCNC(=O)[C@@H]1CCCN1C1(C(=O)NC)CCCCC1`, the cytotoxicity at 70.5 h came to 4.64%.
For `Cc1noc([C@@H](C)NCc2ccc(F)cc2)c1C(=O)O`, the cytotoxicity at 70.5 h was -1.34%.
`O[C@@H]1C[C@@](CNCc2ccc(Cl)cc2)(COc2cccnc2)C[C@@H]1O`: the cytotoxicity at 70.5 h is -10.2%.
